Measured values taken from patent publication US9212182B2, “Bicyclic sulfonamide compounds as sodium channel inhibitors” (AMGEN INC., priority 2013, dated 2015).

Target: Nav 1.7 (Homo sapiens (Human), UniProt Q15858)
Assay: in-vitro Nav 1.7 PX (IC50)
Assay type: cell-based
Conditions: not given

Nav 1.7, sequence (Q15858 whole entry): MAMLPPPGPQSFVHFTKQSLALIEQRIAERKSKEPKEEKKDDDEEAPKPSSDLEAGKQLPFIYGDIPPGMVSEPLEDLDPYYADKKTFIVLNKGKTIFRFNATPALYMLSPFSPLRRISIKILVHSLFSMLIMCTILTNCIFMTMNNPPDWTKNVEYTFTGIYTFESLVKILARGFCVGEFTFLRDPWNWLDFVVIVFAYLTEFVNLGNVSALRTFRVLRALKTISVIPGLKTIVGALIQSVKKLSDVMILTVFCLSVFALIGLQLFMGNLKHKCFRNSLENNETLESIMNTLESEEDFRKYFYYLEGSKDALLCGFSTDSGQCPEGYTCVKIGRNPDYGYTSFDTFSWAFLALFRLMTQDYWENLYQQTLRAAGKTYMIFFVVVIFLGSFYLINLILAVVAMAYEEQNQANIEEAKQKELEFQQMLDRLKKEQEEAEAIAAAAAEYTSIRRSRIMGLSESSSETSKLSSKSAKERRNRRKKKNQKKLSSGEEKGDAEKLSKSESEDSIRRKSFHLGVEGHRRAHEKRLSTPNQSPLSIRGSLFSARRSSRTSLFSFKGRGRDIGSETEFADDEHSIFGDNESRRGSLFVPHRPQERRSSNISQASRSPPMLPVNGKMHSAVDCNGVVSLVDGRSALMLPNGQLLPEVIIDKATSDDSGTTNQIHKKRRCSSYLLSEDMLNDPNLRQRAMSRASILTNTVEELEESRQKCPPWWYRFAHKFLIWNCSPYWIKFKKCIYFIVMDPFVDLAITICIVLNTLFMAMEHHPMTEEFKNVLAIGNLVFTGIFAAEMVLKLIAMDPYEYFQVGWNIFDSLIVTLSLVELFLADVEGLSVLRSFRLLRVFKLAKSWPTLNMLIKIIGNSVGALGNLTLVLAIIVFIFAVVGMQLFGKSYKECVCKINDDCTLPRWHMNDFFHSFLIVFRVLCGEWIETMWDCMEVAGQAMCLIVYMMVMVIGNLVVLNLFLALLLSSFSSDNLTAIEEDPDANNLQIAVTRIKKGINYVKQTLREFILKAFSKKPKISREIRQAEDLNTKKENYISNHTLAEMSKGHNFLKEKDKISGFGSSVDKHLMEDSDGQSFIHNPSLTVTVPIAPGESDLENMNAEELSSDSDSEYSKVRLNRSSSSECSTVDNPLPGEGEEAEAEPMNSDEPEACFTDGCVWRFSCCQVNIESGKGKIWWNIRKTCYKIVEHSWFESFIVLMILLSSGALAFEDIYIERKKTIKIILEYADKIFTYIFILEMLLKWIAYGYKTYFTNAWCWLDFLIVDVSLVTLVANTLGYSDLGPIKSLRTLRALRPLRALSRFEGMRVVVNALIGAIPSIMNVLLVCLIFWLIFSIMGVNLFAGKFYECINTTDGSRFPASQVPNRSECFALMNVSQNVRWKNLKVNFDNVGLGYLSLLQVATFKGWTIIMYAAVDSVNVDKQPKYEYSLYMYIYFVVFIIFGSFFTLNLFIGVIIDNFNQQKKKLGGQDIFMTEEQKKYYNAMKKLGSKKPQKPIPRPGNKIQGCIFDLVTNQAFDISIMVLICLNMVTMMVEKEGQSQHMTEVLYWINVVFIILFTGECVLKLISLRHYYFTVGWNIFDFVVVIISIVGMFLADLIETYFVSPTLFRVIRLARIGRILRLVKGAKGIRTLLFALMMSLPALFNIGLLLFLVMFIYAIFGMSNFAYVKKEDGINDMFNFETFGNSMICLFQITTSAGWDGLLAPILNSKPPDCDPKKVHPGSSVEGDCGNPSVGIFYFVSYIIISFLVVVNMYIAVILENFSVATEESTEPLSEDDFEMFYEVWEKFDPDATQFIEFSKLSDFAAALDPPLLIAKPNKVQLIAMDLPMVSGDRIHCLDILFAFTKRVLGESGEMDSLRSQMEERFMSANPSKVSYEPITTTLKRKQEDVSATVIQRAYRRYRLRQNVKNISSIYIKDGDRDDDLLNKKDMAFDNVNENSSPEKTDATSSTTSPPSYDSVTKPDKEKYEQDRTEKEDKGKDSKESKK

SMILES | IC50 [nM]
COc1cc(-c2cc(F)cc(Cl)c2)ccc1-n1c(=O)ccc2cc(S(=O)(=O)Nc3ccon3)ccc21 (atropisomer, axis not shown; (M)) [Example 429, (M)-1-(3′-chloro-5′-fluoro-3-methoxy-4-biphenylyl)-N-3-isoxazolyl-2-oxo-1,2-dihydro-6-quinolinesulfonamide] | 1590
COc1cc(-c2ccc(Cl)c(C)c2)ccc1-n1c(=O)ccc2cc(S(=O)(=O)Nc3ccon3)ccc21 (atropisomer, axis not shown; (M)) [Example 431, (M)-1-(4′-chloro-3-methoxy-3′-methyl-4-biphenylyl)-N-3-isoxazolyl-2-oxo-1,2-dihydro-6-quinolinesulfonamide] | 5050
COc1cc(-c2cc(F)cc(Cl)c2)c(C#N)cc1-n1c(=O)ccc2cc(S(=O)(=O)Nc3ccon3)ccc21 (atropisomer, axis not shown; (M)) [Example 434, (M)-1-(3′-chloro-2-cyano-5′-fluoro-5-methoxy-4-biphenylyl)-N-3-isoxazolyl-2-oxo-1,2-dihydro-6-quinolinesulfonamide] | 1840
COc1cc(-c2cccc(Cl)c2)c(Cl)cc1-n1c(=O)ccc2cc(S(=O)(=O)Nc3ccon3)ccc21 (atropisomer, axis not shown; (M)) [Example 460, (M)-1-(2,3′-dichloro-5-methoxy-[1,1′-biphenyl]-4-yl)-N-(isoxazol-3-yl)-2-oxo-1,2-dihydroquinoline-6-sulfonamide] | 1760
COc1cc(-c2cc(F)cc(Cl)c2)c(Cl)cc1-n1c(=O)ccc2cc(S(=O)(=O)Nc3ccon3)ccc21 (atropisomer, axis not shown; (M)) [Example 462, (M)-1-(2,3′-dichloro-5′-fluoro-5-methoxy-[1,1′-biphenyl]-4-yl)-N-(isoxazol-3-yl)-2-oxo-1,2-dihydroquinoline-6-sulfonamide] | 193
COc1cc(-c2cccc(F)c2)c(Cl)cc1-n1c(=O)ccc2cc(S(=O)(=O)Nc3ccncn3)ccc21 (atropisomer, axis not shown; (M)) [Example 466, (M)-1-(2-chloro-3′-fluoro-5-methoxy-[1,1′-biphenyl]-4-yl)-2-oxo-N-(pyrimidin-4-yl)-1,2-dihydroquinoline-6-sulfonamide] | 4320
COc1cc(-c2cccc(F)c2)c(Cl)cc1-n1c(=O)ccc2cc(S(=O)(=O)Nc3cccnn3)ccc21 (atropisomer, axis not shown; (M)) [Example 468, (M)-1-(2-chloro-3′-fluoro-5-methoxy-[1,1′-biphenyl]-4-yl)-2-oxo-N-(pyridazin-3-yl)-1,2-dihydroquinoline-6-sulfonamide] | 7000
COc1cc(-c2ccc(Cl)c(C)c2)c(Cl)cc1-n1c(=O)ccc2cc(S(=O)(=O)Nc3ccon3)ccc21 (atropisomer, axis not shown; (M)) [Example 472, (M)-1-(2,4′-dichloro-5-methoxy-3′-methyl-[1,1′-biphenyl]-4-yl)-N-(isoxazol-3-yl)-2-oxo-1,2-dihydroquinoline-6-sulfonamide] | 786
COc1cc(-c2cc(F)cc(Cl)c2)c(F)cc1-n1c(=O)ccc2cc(S(=O)(=O)Nc3ccon3)ccc21 (atropisomer, axis not shown; (M)) [Example 478, (M)-1-(3′-chloro-2,5′-difluoro-5-methoxy-4-biphenylyl)-N-3-isoxazolyl-2-oxo-1,2-dihydro-6-quinolinesulfonamide] | 816
COc1ccc(-c2cccc(F)c2)cc1-n1c(=O)ccc2cc(S(=O)(=O)Nc3ccon3)ccc21 (atropisomer, axis not shown; (M)) [Example 484, (M)-1-(3′-fluoro-4-methoxy-3-biphenylyl)-N-3-isoxazolyl-2-oxo-1,2-dihydro-6-quinolinesulfonamide] | 32300

Same assay, conditions: in-vitro PatchXpress (PX)

IC50 [nM] | SMILES
3070 | COc1cc(-c2cc(F)cc(Cl)c2)ccc1-n1c(=O)ccc2cc(S(=O)(=O)Nc3cccnn3)ccc21 (atropisomer, axis not shown; (M)) [Example 481, (M)-1-(3′-chloro-5′-fluoro-3-methoxy-4-biphenylyl)-2-oxo-N-3-pyridazinyl-1,2-dihydro-6-quinolinesulfonamide]
